Assay results from the NIST ThermoML archive (doi:10.1021/acs.jced.8b00124).
± gives the expanded uncertainty stated by the source.

Tests used:
[1] = Molar enthalpy of transition or fusion; conditions: Crystal; DSC
[2] = Crystal; DTA

For `Cc1cc(C)nc(Nc2ccccc2)n1` [2-anilino-4,6-dimethylpyrimidine], the “Molar enthalpy of transition or fusion” value [1] was 6.08 ± 0.263 kcal/mol and the Normal melting temperature [2] was 96.14 ± 1.1 °C.
